Results from publication PMC8380212, “^18F-labeled tracers targeting fibroblast activation protein” (EJNMMI Radiopharmacy and Chemistry, 2021).

Experiments:
[1] = Determination of logD values (1-octanol / PBS); type: physicochemical; conditions: 1-octanol / phosphate buffered saline, pH 7.4; radiolabeled tracer detected by radioactivity in 1-octanol and phosphate buffered saline
Method: All experiments for the determination of logD values were performed in triplicate. For the determination by means of radioactivity, around 5 × 10^6 cpm in ca. 1 µL of radioactive stock solutions (water/acetonitrile 1:1) were added to 100 µL phosphate buffered saline (PBS, pH 7.4) and 100 µL of 1-octanol. The mixture was vortexed for 1 min, followed by 5 min of centrifugation for phase separation. A sample of each phase (10 or 50 µL) was measured for radioactivity per volume (Packard Cobra II Autogamma, GMI Inc., USA). In case of FAPI-72 and -73, the reference compounds [^19F]-FAPI-72 and -73 were dissolved in PBS at a concentration of 1 mg/mL. 50 µL of these solutions were each mixed with 50 µL 1-octanol and processed by vortexing and centrifugation as described above. 1 µL of each phase was analyzed by HPLC and the individual content of compound was determined by peak integration. The area under the peaks of the individual runs was used to calculate the log D value.
Fig. 1 Overview of the synthesized precursors discussed in this study. The corresponding log D values were determined by detection of the radiolabeled tracer in 1-octanol and phosphate buffered saline (pH 7). For values labeled with an asterix, the log D was calculated from the relative content of the non-radioactive reference standards in the 1-octanol and the water phase by HPLC analysis and peak integration TEXT PRINTED IN THE PICTURE: FAPI-42: LOG D: -1.63±0.06 | FAPI-52: LOG D: -1.90±0.02 | FAPI-72: LOG D: 1.20±0.01* | FAPI-73: LOG D: 1.13±0.05* | FAPI-74: LOG D: -2.42±0.03 | FAPI-75: LOG D: -3.36±0.12 | FAPI-76: LOG D: -2.86±0.07

[2] = Serum stability assay; type: in vitro ADME, human; conditions: 37 °C, 10 min to 4 h, radio-HPLC
Method: Five MBq of purified [^18F]AlF-FAPI-74 (20 GBq/µmol) were dried under reduced pressure and the residue incubated in 300 µL human serum (Sigma Aldrich Germany) at 37 °C. After different time intervals (10 min to 4 h) 20 µL samples were precipitated with 40 µL acetonitrile. The stability of the labeled peptide was monitored by radio-HPLC of the supernatant. A gradient of 0% to 30% acetonitrile in 10 min was used for enhanced separation performance.

[3] = molecular target: T1, FAP‐transfected HT‐1080‐FAP cells (Homo sapiens, UniProt Q12884); assay: In vitro binding/uptake on FAP-transfected HT-1080-FAP cells; type: cell-based; conditions: HT1080-FAP cells
T1 construct: expressed in transfected cells; host or cells: HT-1080 cells transfected with FAP (HT-1080-FAP)
T1 sequence (Q12884 1-760): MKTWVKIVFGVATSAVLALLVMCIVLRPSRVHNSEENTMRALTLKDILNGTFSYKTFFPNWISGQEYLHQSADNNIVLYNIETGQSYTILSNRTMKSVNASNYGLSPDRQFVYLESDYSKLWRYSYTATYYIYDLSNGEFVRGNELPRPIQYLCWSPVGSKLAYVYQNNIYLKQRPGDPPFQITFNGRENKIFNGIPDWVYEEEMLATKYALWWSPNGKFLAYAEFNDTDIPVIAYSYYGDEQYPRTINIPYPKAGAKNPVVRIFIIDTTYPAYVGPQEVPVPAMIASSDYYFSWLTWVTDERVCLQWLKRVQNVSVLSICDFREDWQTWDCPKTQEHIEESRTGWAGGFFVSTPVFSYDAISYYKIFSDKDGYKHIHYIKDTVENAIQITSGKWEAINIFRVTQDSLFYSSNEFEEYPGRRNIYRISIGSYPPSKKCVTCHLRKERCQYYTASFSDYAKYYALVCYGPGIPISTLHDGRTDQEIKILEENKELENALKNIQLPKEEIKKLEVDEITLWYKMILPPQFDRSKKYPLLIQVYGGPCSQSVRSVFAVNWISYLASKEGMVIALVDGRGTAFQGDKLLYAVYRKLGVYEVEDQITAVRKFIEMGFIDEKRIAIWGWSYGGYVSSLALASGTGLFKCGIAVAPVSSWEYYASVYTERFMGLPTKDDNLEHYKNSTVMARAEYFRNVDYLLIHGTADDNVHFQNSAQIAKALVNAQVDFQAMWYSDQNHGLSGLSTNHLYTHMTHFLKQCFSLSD
Method: (§1) The binding properties of the FAPI derivatives were evaluated using the FAP‐transfected HT‐1080‐FAP and CD26 expressing HEK-CD26 cells. All cells were cultivated in Dulbecco's modified Eagle's medium (DMEM) containing 10% fetal calf serum (FCS) at 37 °C/5% carbon dioxide. Cells were seeded in 6-well plates and cultivated to a final confluence of approximately 80–90% (1.2 to 2.0 × 10^6 cells/well). After washing with FCS free medium, for each well ca. 3 kBq of the radiolabeled compound (10–20 GBq/µmol for [^18F]AlF-labeling) was added to the cells in FCS free medium. On completion of the individual incubation time, cells were washed with PBS and treated with 1.4 mL lysis buffer (0.3 m NaOH, 0.2% SDS) before being transferred to measuring tubes. Competition experiments were performed by co-incubation with the unlabeled precursor for 60 min. Radioactivity was determined in a Wizard Gamma Counter (Perkin Elmer), normalized to 10^6 cells and calculated as percentage of the applied dose (%AD). Each experiment was performed in triplicate.

[4] = tested on: wild type HT1080 cells; assay: In vitro binding on wild type HT1080 cells (negative control); type: cell-based
Method: as §1
Table 1 summarizes the uptake and EC50 values of the discussed ^18F-labeled FAPI derivatives using the FAP-transfected cell line HT-1080-FAP. Additionally, the lead candidates FAPI-74 to -76 were tested on HEK-CD26 as well as -74 and -75 on wild type HT1080 cells as negative control. […] For FAPI-74, a plateau was already reached after approximately 10 min with 27.2 ± 0.88%AD/10^6cells. […] The EC50 values were all in the low to sub-nanomolar range. Only a neglectable fraction of FAPIs 74–76 were detected on HEK-CD26 cells (0.18–0.24%) as well as on wildtype HT1080 in case of -74 and 75 (< 0.1%).

For `N#C[C@@H]1CCCN1C(=O)CNC(=O)c1ccnc2ccc(OCCCN3CCN(C(=O)CN4CCN(CC(=O)O)CCN(CC(=O)O)CC4)CC3)cc12` [FAPI-74], the logD [1] was -2.42 ± 0.03, the “stability in human serum” value ([2]; listed as 18F-labeled FAPI-74) was “No degradation products were observed” and the “stability in human serum” value ([2]; listed as [^18F]AlF-FAPI-74) was “no degradation of the tracer or instability of the [^18F]AlF-NOTA complex”. For the same compound, the “uptake 10 min” value ([3]; 10 min incubation) was 27.2 ± 0.88 %AD/10^6 cells, the “uptake 60 min” value ([3]; 60 min incubation) was 29.7 ± 0.66 %AD/10^6 cells and the “uptake 120 min” value ([3]; 120 min incubation) was 30.39 ± 2.47 %AD/10^6 cells. The “uptake WT” value ([4]; wild type HT1080 control cells) was 0.07 ± 0.03 %AD/10^6 cells and the “fraction detected on wildtype HT1080” value ([4]; wildtype HT1080, text) was less than 0.1%.
